In patent US12577231B2, “Androgen receptor PROTACS” (GlaxoSmithKline Intellectual Property Development Limited, priority 2023, dated 2026):

molecular target: T1, Androgen Receptor protein in human LnCaP cells (Homo sapiens, UniProt P10275, T878A); test: Androgen Receptor Degradation Assay (Nano-Glo HiBiT, LnCaP cells); format: cell-based; conditions: 18 h, HiBiT-tagged AR LnCaP cells, 18 h incubation, fitted curve asymptote maximum of degradation, read-out: mean asymptote max
T1 construct: the AR gene was modified, using CRISPR/Cas9 editing, so the expressed AR protein included an 11 amino acid HiBiT tag; endogenous in cells; host or cells: clonal LnCaP derived cell line, endogenous AR gene edited by CRISPR/Cas9
T1 sequence (P10275 1-920 T878A): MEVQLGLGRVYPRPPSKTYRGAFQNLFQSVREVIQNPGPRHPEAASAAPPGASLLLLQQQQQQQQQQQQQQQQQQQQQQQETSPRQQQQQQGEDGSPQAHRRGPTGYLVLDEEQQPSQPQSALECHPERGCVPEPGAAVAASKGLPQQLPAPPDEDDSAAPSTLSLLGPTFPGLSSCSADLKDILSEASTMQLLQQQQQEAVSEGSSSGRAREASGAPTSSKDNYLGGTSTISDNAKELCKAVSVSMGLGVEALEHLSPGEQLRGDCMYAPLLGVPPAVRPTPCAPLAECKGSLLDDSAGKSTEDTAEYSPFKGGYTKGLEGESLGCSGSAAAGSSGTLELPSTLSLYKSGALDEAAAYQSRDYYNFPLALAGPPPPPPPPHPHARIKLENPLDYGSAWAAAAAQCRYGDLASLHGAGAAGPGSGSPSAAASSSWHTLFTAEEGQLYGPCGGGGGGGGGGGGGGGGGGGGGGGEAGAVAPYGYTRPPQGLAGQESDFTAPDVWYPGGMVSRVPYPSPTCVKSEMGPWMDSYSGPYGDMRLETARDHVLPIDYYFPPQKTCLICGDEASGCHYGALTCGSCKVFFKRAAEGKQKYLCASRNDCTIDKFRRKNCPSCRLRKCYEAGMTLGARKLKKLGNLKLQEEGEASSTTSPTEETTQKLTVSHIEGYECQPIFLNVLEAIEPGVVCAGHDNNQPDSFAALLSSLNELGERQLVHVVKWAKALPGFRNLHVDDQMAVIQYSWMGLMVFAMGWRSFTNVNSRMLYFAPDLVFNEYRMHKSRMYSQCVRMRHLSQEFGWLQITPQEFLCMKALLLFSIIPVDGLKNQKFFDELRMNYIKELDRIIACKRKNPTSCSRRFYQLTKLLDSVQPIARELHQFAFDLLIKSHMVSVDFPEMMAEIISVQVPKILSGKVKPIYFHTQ
Procedure, shortened: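 LnCaP cells with CRISPR-knocked-in N-terminal HiBiT tag on endogenous AR, 10,000 cells/well, treated 18 h at 37 °C with PROTACs in an 11-point, 3-fold dilution series. AR quantified by lytic HiBiT luminescence, normalised to DMSO (0%) and cell-free (100%) controls. DC50 from 4-parameter fit (relative) or interpolation (absolute); Dmax is maximal observed degradation.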

Dmax, ≥ 50%:
CC1(C)[C@H](NC(=O)c2cc(F)c(N3CCC(CN4CCC(n5ncc6c(N7CCC(=O)NC7=O)cccc65)CC4)CC3)c(F)c2)C(C)(C)[C@H]1Oc1ccc(C#N)c2ncccc12 [Example 30, N-((1r,3r)-3-((8-Cyanoquinolin-5-yl)oxy)-2,2,4,4-tetramethylcyclobutyl)-4-(4-((4-(4-(2,4-dioxotetrahydropyrimidin-1(2H)-yl)-1H-indazol-1-yl)piperidin-1-yl)methyl)piperidin-1-yl)-3,5-difluorobenzamide]
CC1(C)[C@H](NC(=O)c2ccc(N3CCC(CN4CC[C@H](n5ncc6c(N7CCC(=O)NC7=O)cccc65)[C@H](F)C4)CC3)c(F)c2)C(C)(C)[C@H]1Oc1ccc(C#N)c2ncccc12 [Example 46, N-((1r,3r)-3-((8-Cyanoquinolin-5-yl)oxy)-2,2,4,4-tetramethylcyclobutyl)-4-(4-(((3R,4S)-4-(4-(2,4-dioxotetrahydropyrimidin-1(2H)-yl)-1H-indazol-1-yl)-3-fluoropiperidin-1-yl)methyl)piperidin-1-yl)-3-fluorobenzamide]
CC1(C)[C@H](NC(=O)c2ccc(N3CCC(CN4CCC(n5ncc6c(N7CCC(=O)NC7=O)ccnc65)CC4)CC3)c(F)c2)C(C)(C)[C@H]1Oc1ccc(C#N)c2ncccc12 [Example 40, N-((1r,3r)-3-((8-Cyanoquinolin-5-yl)oxy)-2,2,4,4-tetramethylcyclobutyl)-4-(4-((4-(4-(2,4-dioxotetrahydropyrimidin-1(2H)-yl)-1H-pyrazolo[3,4-b]pyridin-1-yl)piperidin-1-yl)methyl)piperidin-1-yl)-3-fluorobenzamide]
CC1(C)[C@H](NC(=O)c2ccc(N3CCC(CN4CCC(n5ccc6c(N7CCC(=O)NC7=O)c(F)ccc65)CC4)CC3)c(F)c2)C(C)(C)[C@H]1Oc1ccc(C#N)c2ncccc12 [Example 51, N-((1r,3r)-3-((8-Cyanoquinolin-5-yl)oxy)-2,2,4,4-tetramethylcyclobutyl)-4-(4-((4-(4-(2,4-dioxotetrahydropyrimidin-1(2H)-yl)-5-fluoro-1H-indol-1-yl)piperidin-1-yl)methyl)piperidin-1-yl)-3-fluorobenzamide]
CC1(C)[C@H](NC(=O)c2ccc(N3CCC(CN4CCC(n5ncc6c(N7CCC(=O)NC7=O)c(F)ccc65)CC4)CC3)c(F)c2)C(C)(C)[C@H]1Oc1ccc(C#N)c2ncccc12 [Example 50, N-((1r,3r)-3-((8-Cyanoquinolin-5-yl)oxy)-2,2,4,4-tetramethylcyclobutyl)-4-(4-((4-(4-(2,4-dioxotetrahydropyrimidin-1(2H)-yl)-5-fluoro-1H-indazol-1-yl)piperidin-1-yl)methyl)piperidin-1-yl)-3-fluorobenzamide]
